The subject of test [1] is Streptococcus mutans. Nature of the test: Agonist activity at Streptococcus mutans SAB249 ComD receptor assessed as increase in cipB expression at 10 uM after 1 hr by beta-galactosidase reporter gene assay relative to control. For orientation: A reporter such as luciferase makes a cellular process visible.
The subject of test [2] is Streptococcus mutans. Nature of the test: Antagonist activity at Streptococcus mutans SAB249 ComD receptor assessed as inhibition of 18-CSP-induced cipB expression at 10 uM after 1 hr by beta-galactosidase reporter gene assay.
Test [3] in a line: Agonist activity at Streptococcus mutans SAB249 ComD receptor assessed as increase in cipB expression after 1 hr by beta-galactosidase reporter gene assay.
The test system of test [4] is Streptococcus mutans. Nature of the test: Activation of comD quorum sensing system in Streptococcus mutans SMCC3 harboring comC deletion mutant assessed as reduction in inhibition zone of Streptococcus anginosus ATCC 33397 at 5 to 100 nM preincubated for 4 hrs followed by Streptococcus anginosus ATCC 33397 addition and measured after 24 hrs.
Test [5] deals with Streptococcus mutans. Nature of the test: Activation of comD quorum sensing system in Streptococcus mutans SMCC3 harboring comC deletion mutant assessed as reduction in inhibition zone of Streptococcus anginosus ATCC 33397 at 0.25 nM preincubated for 4 hrs followed by Streptococcus anginosus ATCC 33397 addition and measured after 24 hrs.
Test [6] deals with Streptococcus mutans. Nature of the test: Activation of comD quorum sensing system in Streptococcus mutans SMCC3 harboring comC deletion mutant assessed as reduction in inhibition zone of Streptococcus anginosus ATCC 33397 at 0.25 to 1 nM preincubated for 4 hrs followed by Streptococcus anginosus ATCC 33397 addition and measured after 24 hrs.

Calls of active or inactive are those of the source. The calls are words filed in the database; no cut-off is given here. Non-standard residues stand in square brackets, D forms with d. Residues, ends and D or L forms follow the SMILES beside them. NMeR = CN[C@@H](CCCNC(=N)N)C(=O)O; NMeF = CN[C@@H](Cc1ccccc1)C(=O)O; NMeT = CN[C@H](C(=O)O)[C@@H](C)O; NMeN = CN[C@@H](CC(N)=O)C(=O)O; NMeL = CN[C@@H](CC(C)C)C(=O)O; NMeS = CN[C@@H](CO)C(=O)O Some results are limits rather than exact numbers.

On to `CC(C)C[C@H](NC(=O)[C@@H](N)CO)C(=O)N[C@@H](CO)C(=O)N[C@H](C(=O)N[C@@H](Cc1ccccc1)C(=O)N[C@@H](Cc1ccccc1)C(=O)N(C)[C@@H](CCCNC(=N)N)C(=O)N[C@@H](CC(C)C)C(=O)N[C@@H](Cc1ccccc1)C(=O)N[C@@H](CC(N)=O)C(=O)N[C@@H](CCCNC(=N)N)C(=O)N[C@@H](CO)C(=O)N[C@@H](Cc1ccccc1)C(=O)N[C@H](C(=O)N[C@@H](CCC(N)=O)C(=O)N[C@@H](C)C(=O)O)[C@@H](C)O)[C@@H](C)O` (H-SLSTFF[NMeR]LFNRSFTQA-OH), for which the Activity in the test with Streptococcus mutans [1] stood at 45%. In addition, in the test with Streptococcus mutans [2], the inhibition result is “inactive”.

Consider H-GSLSTFFRLFNRSFTQA-OH, for which the EC50 – broadly, the concentration that produces a half-maximal response – in test [3] was 4.8 nM.

Regarding `CC(C)C[C@H](NC(=O)[C@H](CCCNC(=N)N)NC(=O)[C@H](Cc1ccccc1)NC(=O)[C@H](Cc1ccccc1)NC(=O)[C@H]([C@@H](C)O)N(C)C(=O)[C@H](CO)NC(=O)[C@H](CC(C)C)NC(=O)[C@@H](N)CO)C(=O)N[C@@H](Cc1ccccc1)C(=O)N[C@@H](CC(N)=O)C(=O)N[C@@H](CCCNC(=N)N)C(=O)N[C@@H](CO)C(=O)N[C@@H](Cc1ccccc1)C(=O)N[C@H](C(=O)N[C@@H](CCC(N)=O)C(=O)N[C@@H](C)C(=O)O)[C@@H](C)O` (H-SLS[NMeT]FFRLFNRSFTQA-OH), the EC50 in test [3] is > 1000 nM.

Consider H-GSLSAFFRAFNAAFTAA-OH, for which the inhibition result in the test with Streptococcus mutans [4] and with Streptococcus mutans [5] was “Active” each time.

As to `CC(C)C[C@H](NC(=O)[C@@H](N)CO)C(=O)N[C@@H](CO)C(=O)N[C@H](C(=O)N[C@@H](Cc1ccccc1)C(=O)N[C@@H](Cc1ccccc1)C(=O)N[C@@H](CCCNC(=N)N)C(=O)N[C@@H](CC(C)C)C(=O)N(C)[C@@H](Cc1ccccc1)C(=O)N[C@@H](CC(N)=O)C(=O)N[C@@H](CCCNC(=N)N)C(=O)N[C@@H](CO)C(=O)N[C@@H](Cc1ccccc1)C(=O)N[C@H](C(=O)N[C@@H](CCC(N)=O)C(=O)N[C@@H](C)C(=O)O)[C@@H](C)O)[C@@H](C)O` (H-SLSTFFRL[NMeF]NRSFTQA-OH), the Activity in the test with Streptococcus mutans [1] was 0%. Also, in the test on Streptococcus mutans [2], the inhibition entry is “inactive”. Besides, in the test with Streptococcus mutans [4], the inhibition result was “Active”.

As for `CC(C)C[C@H](NC(=O)[C@@H](N)CO)C(=O)N[C@@H](CO)C(=O)N[C@H](C(=O)N[C@@H](Cc1ccccc1)C(=O)N[C@@H](Cc1ccccc1)C(=O)N[C@@H](CCCNC(=N)N)C(=O)N(C)[C@@H](CC(C)C)C(=O)N[C@@H](Cc1ccccc1)C(=O)N[C@@H](CC(N)=O)C(=O)N[C@@H](CCCNC(=N)N)C(=O)N[C@@H](CO)C(=O)N[C@@H](Cc1ccccc1)C(=O)N[C@H](C(=O)N[C@@H](CCC(N)=O)C(=O)N[C@@H](C)C(=O)O)[C@@H](C)O)[C@@H](C)O` (H-SLSTFFR[NMeL]FNRSFTQA-OH), the Activity in the test with Streptococcus mutans [1] came out at 29%. Moreover, in the test with Streptococcus mutans [2], the inhibition result is “inactive”.

Take `CC(C)C[C@H](NC(=O)[C@H](CCCNC(=N)N)NC(=O)[C@H](Cc1ccccc1)NC(=O)[C@H](Cc1ccccc1)NC(=O)[C@@H](NC(=O)[C@H](CO)NC(=O)[C@H](CC(C)C)NC(=O)[C@@H](N)CO)[C@@H](C)O)C(=O)N[C@@H](Cc1ccccc1)C(=O)N[C@@H](CC(N)=O)C(=O)N[C@@H](CCCNC(=N)N)C(=O)N[C@@H](CO)C(=O)N(C)[C@@H](Cc1ccccc1)C(=O)N[C@H](C(=O)N[C@@H](CCC(N)=O)C(=O)N[C@@H](C)C(=O)O)[C@@H](C)O` (H-SLSTFFRLFNRS[NMeF]TQA-OH): in the test with Streptococcus mutans [1], the Activity was found to be 17%. In addition, the inhibition result in the test on Streptococcus mutans [2] is “inactive”.

H-SLSTFFRLFNRSFTQA-OH: in the test on Streptococcus mutans [1], the Activity was found to be 100%. For the same compound, in test [3], the EC50 is 7.9 nM.

For the compound `CC(C)C[C@H](NC(=O)[C@H](CCCNC(=N)N)NC(=O)[C@H](Cc1ccccc1)NC(=O)[C@H](Cc1ccccc1)NC(=O)[C@@H](NC(=O)[C@H](CO)NC(=O)[C@H](CC(C)C)NC(=O)[C@@H](N)CO)[C@@H](C)O)C(=O)N[C@@H](Cc1ccccc1)C(=O)N(C)[C@@H](CC(N)=O)C(=O)N[C@@H](CCCNC(=N)N)C(=O)N[C@@H](CO)C(=O)N[C@@H](Cc1ccccc1)C(=O)N[C@H](C(=O)N[C@@H](CCC(N)=O)C(=O)N[C@@H](C)C(=O)O)[C@@H](C)O` (H-SLSTFFRLF[NMeN]RSFTQA-OH), in the test with Streptococcus mutans [1], the Activity was found to be 11%. Moreover, the inhibition entry with Streptococcus mutans [2] was “inactive”.

In the case of H-SGSLSTFFRLFNRSFTQA-OH, in the test on Streptococcus mutans [1], the Activity came out at 100%. For the same compound, the EC50 in test [3] amounted to 6.2 nM. For the same compound, the inhibition result with Streptococcus mutans [6] is “inactive”.

`CC(C)C[C@H](NC(=O)[C@H](CCCNC(=N)N)NC(=O)[C@H](Cc1ccccc1)NC(=O)[C@H](Cc1ccccc1)NC(=O)[C@@H](NC(=O)[C@H](CO)NC(=O)[C@H](CC(C)C)NC(=O)[C@@H](N)CO)[C@@H](C)O)C(=O)N[C@@H](Cc1ccccc1)C(=O)N[C@@H](CC(N)=O)C(=O)N(C)[C@@H](CCCNC(=N)N)C(=O)N[C@@H](CO)C(=O)N[C@@H](Cc1ccccc1)C(=O)N[C@H](C(=O)N[C@@H](CCC(N)=O)C(=O)N[C@@H](C)C(=O)O)[C@@H](C)O` (H-SLSTFFRLFN[NMeR]SFTQA-OH): the Activity in the test with Streptococcus mutans [1] was 5%. For the same compound, in the test with Streptococcus mutans [2], the inhibition entry is “inactive”. Also, the inhibition result in the test with Streptococcus mutans [4] was “Active”.

In the case of `CC(C)C[C@H](NC(=O)[C@H](CCCNC(=N)N)NC(=O)[C@H](Cc1ccccc1)NC(=O)[C@H](Cc1ccccc1)NC(=O)[C@@H](NC(=O)[C@H](CO)NC(=O)[C@H](CC(C)C)NC(=O)[C@@H](N)CO)[C@@H](C)O)C(=O)N[C@@H](Cc1ccccc1)C(=O)N[C@@H](CC(N)=O)C(=O)N[C@@H](CCCNC(=N)N)C(=O)N[C@@H](CO)C(=O)N[C@@H](Cc1ccccc1)C(=O)N(C)[C@H](C(=O)N[C@@H](CCC(N)=O)C(=O)N[C@@H](C)C(=O)O)[C@@H](C)O` (H-SLSTFFRLFNRSF[NMeT]QA-OH), the Activity in the test with Streptococcus mutans [1] came out at 38%. Besides, the inhibition entry with Streptococcus mutans [2] is “inactive”.

In the case of H-GSLSAFFRAFNAAFTQA-OH, the inhibition result with Streptococcus mutans [4] and in the test on Streptococcus mutans [5] was “Active” each time.

`CC(C)C[C@H](NC(=O)[C@H](CCCNC(=N)N)NC(=O)[C@H](Cc1ccccc1)NC(=O)[C@H](Cc1ccccc1)NC(=O)[C@@H](NC(=O)[C@H](CO)NC(=O)[C@H](CC(C)C)NC(=O)[C@@H](N)CO)[C@@H](C)O)C(=O)N[C@@H](Cc1ccccc1)C(=O)N[C@@H](CC(N)=O)C(=O)N[C@@H](CCCNC(=N)N)C(=O)N(C)[C@@H](CO)C(=O)N[C@@H](Cc1ccccc1)C(=O)N[C@H](C(=O)N[C@@H](CCC(N)=O)C(=O)N[C@@H](C)C(=O)O)[C@@H](C)O` (H-SLSTFFRLFNR[NMeS]FTQA-OH): the Activity in the test with Streptococcus mutans [1] turned out to be 12%. Besides, in the test with Streptococcus mutans [2], the inhibition entry is “inactive”.

(Values after ChEMBL document CHEMBL4422668 (Bioorg Med Chem Lett, 2019).)
